In ChEMBL document CHEMBL4011593, “Development of 2, 4-diaminoquinazoline derivatives as potent PAK4 inhibitors by the core refinement strategy” (Eur J Med Chem, 2017):

Legend:
[1] = molecular target: T1, Serine/threonine-protein kinase PAK 4 (Homo sapiens, UniProt O96013); experiment: Inhibition of myc-tagged PAK4 (unknown origin) using histone H3 as substrate preincubated for 30 mins followed by substrate addition measured for 30 mins in presence of [gamma-32P]ATP by autoradiographic method
[2] = molecular target: T1, Serine/threonine-protein kinase PAK 4; experiment: Inhibition of recombinant human N-terminal GST-fused PAK4 (1 to 591 residues) expressed in baculovirus expression system using S2 as substrate measured after 40 mins by HTRF assay
[3] = Oral bioavailability in metastatic solid tumor patient; type: ADME, organism-based; details: human, in vivo

T1 sequence (O96013 whole entry, the tested form may be a part): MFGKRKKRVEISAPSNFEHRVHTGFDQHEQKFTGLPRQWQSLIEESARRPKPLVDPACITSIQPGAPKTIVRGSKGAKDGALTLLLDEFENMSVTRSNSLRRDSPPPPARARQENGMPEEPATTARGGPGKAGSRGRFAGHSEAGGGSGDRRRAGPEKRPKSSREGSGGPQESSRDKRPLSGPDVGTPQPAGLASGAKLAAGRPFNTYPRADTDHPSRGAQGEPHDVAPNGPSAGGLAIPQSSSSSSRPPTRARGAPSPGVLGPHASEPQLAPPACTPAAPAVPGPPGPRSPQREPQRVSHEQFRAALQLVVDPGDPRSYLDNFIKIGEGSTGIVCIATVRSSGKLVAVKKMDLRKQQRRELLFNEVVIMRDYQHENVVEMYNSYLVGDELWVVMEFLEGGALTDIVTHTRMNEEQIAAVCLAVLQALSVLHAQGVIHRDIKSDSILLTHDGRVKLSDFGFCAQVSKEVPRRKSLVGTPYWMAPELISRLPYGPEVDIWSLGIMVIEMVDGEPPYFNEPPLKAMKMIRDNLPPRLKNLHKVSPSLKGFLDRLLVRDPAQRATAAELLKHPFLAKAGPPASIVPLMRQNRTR

| SMILES | IC50 [2] | further results |
| --- | --- | --- |
| COc1cccc(Nc2nc(NCC3CCCO3)c3ccccc3n2)c1 (configuration not stated) |  | IC50 [1]: 14500 nM |
| COc1ccc2c(Nc3ccc4[nH]ncc4c3)nc(NCCc3c[nH]c4ccccc34)nc2c1 | 483 nM |  |
| Clc1ccc2nc(Nc3ccc4[nH]cnc4c3)nc(NCCc3c[nH]c4ccccc34)c2c1 | 3070 nM |  |
| COc1ccc2nc(NCCc3c[nH]c4ccccc34)nc(Nc3ccc4[nH]ncc4c3)c2c1 | 1510 nM |  |
| Cc1nc(Nc2n[nH]c3c2CN(C(=O)N[C@H](CN(C)C)c2ccccc2)C3(C)C)c2sccc2n1 [PF-03758309] |  | bioavailability [3]: 1% |

Further lines, with some results ahead:

| IC50 [2] | SMILES | further results |
| --- | --- | --- |
| 1160 nM | Clc1ccc2nc(Nc3ccc4[nH]nnc4c3)nc(NCCc3c[nH]c4ccccc34)c2c1 |  |
| 1060 nM | Clc1ccc2nc(Nc3cc(Br)c4[nH]ncc4c3)nc(NCCc3c[nH]c4ccccc34)c2c1 |  |
| 2040 nM | Clc1ccc2nc(Nc3ccc4cn[nH]c4c3)nc(NCCc3c[nH]c4ccccc34)c2c1 |  |
| 937 nM | Clc1ccc2nc(Nc3cc(Cl)c4[nH]ncc4c3)nc(NCCc3c[nH]c4ccccc34)c2c1 |  |
| 2330 nM | Cc1cc(Nc2nc(NCCc3c[nH]c4ccccc34)c3cc(Cl)ccc3n2)cc2cn[nH]c12 |  |
| 1760 nM | O=C1Cc2cc(Nc3nc(NCCc4c[nH]c5ccccc45)c4cc(Cl)ccc4n3)ccc2N1 |  |
| 633 nM | Clc1ccc2nc(Nc3cnc4[nH]ncc4c3)nc(NCCc3c[nH]c4ccccc34)c2c1 |  |
